Drawing on patent US20260224536A1, “ARYL HETEROCYCLIC KV1.3 INHIBITOR, PREPARATION METHOD THEREFOR, AND USE THEREOF” (SHANGHAI SHENSHI WISE TECHNOLOGY CO., LTD., priority 2022, published 2026), this text covers IC50 for 26 compounds.

The assay has as its target Kv1.3 potassium channel (Homo sapiens, UniProt P22001). The assay can be described thus: Whole-cell patch-clamp assay for inhibitory activity against Kv1.3 (peak current). It counts as cell-based. Conditions: HEK293 cells stably expressing Kv1.3, patch-clamp. From the text: The voltage stimulation protocol for recording whole-cell Kv1.X potassium currents via patch-clamp was as follows. After formation of a whole-cell seal, the cell membrane voltage was clamped at −80 mV, and then stepped to +40 mV for 500 ms. […] The test data were acquired by EPC-10 amplifier (HEKA) and stored in the PatchMaster (HEKA) software. Recording electrodes were drawn from capillary glass tubes using a microelectrode puller. Under an inverted microscope, the recording electrode was brought into contact with the cell surface by manipulating a microelectrode manipulator. Negative-pressure suction was applied to form a GΩ seal. After formation of the […], a rapid capacitance compensation was given. The application of negative pressure was continued to rupture the cell membrane, forming a whole-cell recording mode. Then, a slow capacitance compensation was given, and the membrane capacitance and series resistance were recorded. No current leakage compensation was provided. Once the whole-cell recorded Kv1.X current stabilized, drug administration was started. Each drug concentration was allowed to act for 5 min (or until the current reached a steady state) before the next concentration was tested. Multiple concentrations were tested for each test compound. The cover glass plated with the cells was placed in a recording bath of the inverted microscope. The test compound and the compound-free extracellular fluid were allowed to sequentially flow through the recording bath from low concentrations to high concentrations using a gravity perfusion method, thus acting on the cells, and liquid exchange was performed using a vacuum pump during recording. For each cell, the current detected in the compound-free extracellular liquid was used as its own control group. The test was independently repeated three times using at least three cells per concentration. All electrophysiological experiments were performed at room temperature. […] First, the peak current after the action of each drug concentration and the peak current of the blank control were standardized and then the inhibition rate corresponding to each drug concentration was calculated Subsequently, the mean, standard deviation (SD), and standard error (SE) were calculated for the inhibition rate corresponding to each concentration. Using the above equation, the IC50 value for each compound was calculated, and the dose-dependent effect was subjected to non-linear fitting, where IC50 is the half maximal inhibitory concentration. The IC50 calculation and the curve fitting were performed using the GraphPad Prism software.
(In general: The patch-clamp technique gives a direct electrical read-out from membranes.)

Kv1.3 potassium channel, sequence (P22001 whole entry): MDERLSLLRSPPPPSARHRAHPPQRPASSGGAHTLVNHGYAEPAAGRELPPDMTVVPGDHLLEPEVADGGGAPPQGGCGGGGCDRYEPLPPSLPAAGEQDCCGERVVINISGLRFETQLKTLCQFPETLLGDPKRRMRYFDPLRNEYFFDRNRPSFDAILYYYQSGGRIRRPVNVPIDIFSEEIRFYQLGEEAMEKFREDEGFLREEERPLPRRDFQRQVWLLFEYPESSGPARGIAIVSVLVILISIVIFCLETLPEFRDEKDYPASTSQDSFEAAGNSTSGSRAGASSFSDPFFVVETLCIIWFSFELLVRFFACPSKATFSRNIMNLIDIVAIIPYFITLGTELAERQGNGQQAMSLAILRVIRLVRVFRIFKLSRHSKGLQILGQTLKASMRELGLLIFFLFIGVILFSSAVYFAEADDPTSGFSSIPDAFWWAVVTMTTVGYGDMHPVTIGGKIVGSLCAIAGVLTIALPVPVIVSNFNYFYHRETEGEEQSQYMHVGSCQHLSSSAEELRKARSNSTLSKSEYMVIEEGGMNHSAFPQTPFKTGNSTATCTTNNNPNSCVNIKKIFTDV

Regarding `CCn1nc2n(c1=O)C[C@H](c1c(O)ccc(Cl)c1Cl)C2` [Example 106, (S)-6-(2,3-Dichloro-6-hydroxyphenyl)-2-ethyl-2,5,6,7-tetrahydro-3H-pyrrolo[2,1-c][1,2,4]triazol-3-one], the IC50 (in general, the concentration at which inhibition is half-maximal) was determined as 29.8 nM.
On to `CC(=O)N1CC[C@@H](c2nnc3n2C[C@H](c2c(O)ccc(Cl)c2Cl)C3)C1` [Example 81, 1-((R)-3-((S)-6-(2,3-Dichloro-6-hydroxyphenyl)-6,7-dihydro-5H-pyrrolo[2,1-c][1,2,4]triazol-3-yl)pyrrolidin-1-yl)ethan-1-one], for which it took 11.3 nM to reach half-maximal inhibition (IC50).
Consider `CCn1cc2c(n1)CC(c1c(O)ccc(Cl)c1Cl)C2` (centres unmarked) [Example 112, 3,4-Dichloro-2-(2-ethyl-2,4,5,6-tetrahydrocyclopenta[c]pyrazol-5-yl)phenol], for which the IC50 turned out to be 43.1 nM. This IC50 is about 3.8-fold higher than that of the compound before.
Turning to `CC1(C)CC(c2nnc3n2CC(c2c(O)ccc(Cl)c2Cl)C3)CCN1` (centres unmarked) [Example 89, 3,4-Dichloro-2-(3-(2,2-dimethylpiperidin-4-yl)-6,7-dihydro-5H-pyrrolo[2,1-c][1,2,4]triazol-6-yl)phenol], the IC50 stood at 8.25 nM.
For the compound `Oc1ccc(Cl)c(Cl)c1[C@@H]1Cc2nnc(CC(F)(F)F)n2C1` [Example 87, (S)-3,4-Dichloro-2-(3-(2,2,2-trifluoroethyl)-6,7-dihydro-5H-pyrrolo[2,1-c][1,2,4]triazol-6-yl)phenol], the midpoint of inhibition, the IC50, lay at 20.7 nM.
Consider `Oc1ccc(Br)c(Cl)c1C1Cc2nnc([C@@H]3CCOC3)n2C1` (stereo partly drawn) [Example 120, (S)-4-Bromo-3-chloro-2-(3-(tetrahydrofuran-3-yl)-6,7-dihydro-5H-pyrrolo[2,1-c][1,2,4]triazol-6-yl)phenol], for which inhibition was half-maximal at 20.2 nM (IC50).
The compound `O=C1C[C@@H](c2nnc3n2C[C@H](c2c(O)ccc(Cl)c2Cl)C3)CN1` [Example 52, (R)-4-((S)-6-(2.3-Dichloro-6-hydroxyphenyl)-6,7-dihydro-5H-pyrrolo[2,1-c][1,2,4]triazol-3-yl)pyrrolidin-2-one] registered an IC50 of 14 nM. The IC50 values of the last two compounds are within 1.5-fold of each other.
The compound `Oc1ccc(Cl)c(Cl)c1[C@@H]1Cc2nnc([C@H]3CCNC3)n2C1` [Example 47, 3,4-Dichloro-2-((S)-3-((S)-pyrrolidin-3-yl)-6,7-dihydro-5H-pyrrolo[2,1-c][1,2,4]triazol-6-yl)phenol] registered an IC50 of 1.3 nM. Against the preceding compound, the IC50 is about 11-fold lower.
In turn, `Oc1ccc(Cl)c(Cl)c1[C@@H]1Cc2nnc(C3CCOCC3)n2C1` [Example 33, (S)-3,4-Dichloro-2-(3-(tetrahydro-2H-pyran-4-yl)-6,7-dihydro-5H-pyrrolo[2,1-c][1,2,4]triazol-6-yl)phenol] returned an IC50 of 47.8 nM.
`N#Cc1ccc(-c2nnc3n2CC(c2c(O)ccc(Cl)c2Cl)C3)cc1` (centres unmarked) [Example 6, 4-(6-(2,3-dichloro-6-hydroxyphenyl)-6,7-dihydro-5H-pyrrolo[2,1-c][1,2,4]triazol-3-yl)benzonitrile] displayed an IC50 of 13.2 nM.
`COc1ccc(-c2cnc3n2CC(c2c(O)ccc(Cl)c2Cl)C3)cc1` (centres unmarked) [Example 96, 3,4-Dichloro-2-(3-(4-methoxyphenyl)-6,7-dihydro-5H-pyrrolo[1,2-a]imidazol-6-yl)phenol] gave an IC50 of 51.6 nM. This IC50 lies about 3.9-fold higher than the previous one.
The same measure for `COc1cccc(-c2nnc3n2C[C@@H](c2c(O)ccc(Cl)c2Cl)C3)c1` [Example 77, (R)-3,4-dichloro-2-(3-(3-methoxyphenyl)-6,7-dihydro-5H-pyrrolo[2,1-c][1,2,4]triazol-6-yl)phenol]: 45.2 nM; for `Oc1ccc(Cl)c(Cl)c1[C@H]1Cc2ncc(C3CCCC3)n2C1` [Example 91, (R)-3,4-dichloro-2-(3-cyclopentyl-6,7-dihydro-5H-pyrrolo[1,2-a]imidazol-6-yl)phenol]: 4.92 nM; for `CCc1cnc2n1C[C@@H](c1c(O)ccc(Cl)c1Cl)C2` [Example 93, (R)-3,4-dichloro-2-(3-ethyl-6,7-dihydro-5H-pyrrolo[1,2-a]imidazol-6-yl)phenol]: 3.11 nM.
On to `Oc1ccc(Cl)c(Cl)c1[C@@H]1Cc2nnc([C@@]34COCC3C4)n2C1` (stereo partly drawn) [Example 72, 2-((6S)-3-((1S)-3-Oxabicyclo[3.1.0]hexan-1-yl)-6,7-dihydro-5H-pyrrolo[2,1-c][1,2,4]triazol-6-yl)-3,4-dichlorophenol], for which half-maximal inhibition (IC50) was put at 39.1 nM. Compared with the last compound, the IC50 is about 13-fold higher.
Regarding `CC(C)N1CCC(c2cnc3n2C[C@@H](c2c(O)ccc(Cl)c2Cl)C3)CC1` [Example 95, (R)-3,4-dichloro-2-(3-(1-isopropylpiperidin-4-yl)-6,7-dihydro-5H-pyrrolo[1,2-a]imidazol-6-yl)phenol], it took 6.06 nM to reach half-maximal inhibition (IC50).
In turn, `CC(C)(C#N)c1nnc2n1CC(c1c(O)ccc(Cl)c1Cl)C2` (centres unmarked) [Example 4, 2-(6-(2,3-Dichloro-6-hydroxyphenyl)-6,7-dihydro-5H-pyrrolo[2,1-c][1,2,4]triazol-3-yl)-2-methylpropanenitrile] registered an IC50 of 45.2 nM. This IC50 lies about 7.5-fold higher than the previous one.
As to `Cn1cc(-c2cnc3n2CC(c2c(O)ccc(Cl)c2Cl)C3)cn1` (centres unmarked) [Example 97, 3,4-Dichloro-2-(3-(1-methyl-1H-pyrazol-4-yl)-6,7-dihydro-5H-pyrrolo[1,2-a]imidazol-6-yl)phenol], the concentration for half-maximal inhibition (IC50) was 11.7 nM. Against the preceding compound, the IC50 is about 3.9-fold lower.
In the case of `Cn1cc(-c2nnc3n2C[C@H](c2c(O)ccc(Cl)c2Cl)C3)ccc1=O` [Example 38, (S)-5-(6-(2,3-Dichloro-6-hydroxyphenyl)-6,7-dihydro-5H-pyrrolo[2,1-c][1,2,4]triazol-3-yl)-1-methylpyridin-2(1H)-one] it was 43.1 nM.
Compound `Oc1ccc(Br)c(Br)c1C1Cc2nnc([C@@H]3CCOC3)n2C1` (stereo partly drawn) [Example 119, 3,4-Dibromo-2-(3-((S)-tetrahydrofuran-3-yl)-6,7-dihydro-5H-pyrrolo[2,1-c][1,2,4]triazol-6-yl)phenol] returned a half-inhibitory concentration (IC50) of 6.54 nM. This IC50 is about 6.6-fold lower than that of the compound before.
Regarding `CC(C)N1CCC(c2nnc3n2C[C@H](c2c(O)ccc(Cl)c2Cl)C3)CC1` [Example 36, (S)-3,4-Dichloro-2-(3-(1-isopropylpiperidin-4-yl)-6,7-dihydro-5H-pyrrolo[2,1-c][1,2,4]triazol-6-yl)phenol], the IC50 came to 6.8 nM.
Turning to `O=C1CC(c2nnc3n2C[C@H](c2c(O)ccc(Cl)c2Cl)C3)CCN1` (single isomer, unassigned) [Example 56], the IC50 was 20.6 nM.
Compound `Oc1ccc(Cl)c(Cl)c1[C@@H]1Cc2nnc(-c3cn[nH]c3)n2C1` [Example 46, (S)-2-(3-(1H-Pyrazol-4-yl)-6,7-dihydro-5H-pyrrolo[2,1-c][1,2,4]triazol-6-yl)-3,4-dichlorophenol] had an IC50 of 5.12 nM.
In turn, `COC(=O)N1CC[C@@H](c2nnc3n2C[C@H](c2c(O)ccc(Cl)c2Cl)C3)C1` [Example 51, methyl (R)-3-((S)-6-(2,3-dichloro-6-hydroxyphenyl)-6,7-dihydro-5H-pyrrolo[2,1-c][1,2,4]triazol-3-yl)pyrrolidine-1-carboxylate] displayed an IC50 of 7.24 nM.
Consider `O=C(C1CC1)N1CCC(c2nnc3n2CC(c2c(O)ccc(Cl)c2Cl)C3)CC1` (centres unmarked) [Example 10, Cyclopropyl(4-(6-(2,3-dichloro-6-hydroxyphenyl)-6,7-dihydro-5H-pyrrolo[2,1-c][1,2,4]triazol-3-yl)piperidin-1-yl)methanone], for which the IC50 stood at 27.7 nM.
As for `Oc1ccc(Cl)c(Cl)c1[C@@H]1Cc2nnc([C@@H]3CCNC3)n2C1` [Example 48, 3,4-dichloro-2-((S)-3-((R)-pyrrolidin-3-yl)-6,7-dihydro-5H-pyrrolo[2,1-c][1,2,4]triazol-6-yl)phenol], half-maximal inhibition (IC50) required 8.49 nM.
